Assay results as given in publication PMC4167585 (Cell, 2014).

Assays:
[1] = target: T1, human microsomal GST (MGST1) (Homo sapiens, UniProt P10620); experiment: GST activity toward CDNB; type: biochemical; conditions: GSH co-substrate
T1 sequence (P10620 1-155): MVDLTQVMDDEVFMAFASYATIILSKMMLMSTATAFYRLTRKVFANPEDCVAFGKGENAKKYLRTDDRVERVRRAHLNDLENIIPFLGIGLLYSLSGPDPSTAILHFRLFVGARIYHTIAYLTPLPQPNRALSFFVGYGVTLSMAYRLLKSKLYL

[2] = tested on: C=CC1=C(C)C2=Cc3c(C=C)c(C)c4[n]3[Fe+][n]3c(c(C)c(CCC(=O)O)c3=CC3=NC(=C4)C(C)=C3CCC(=O)O)=CC1=N2; experiment: purified protein; conditions: 2 mM GSH, 100 nM enzyme, pH 6.5, 0.1% Triton X-100
EXP1 = EXP1 (Plasmodium falciparum, UniProt Q8IIF0); experiment: inhibition of GSH-CDNB conjugation, Dixon plot; type: biochemical

## O=[N+]([O-])c1ccc(Cl)c([N+](=O)[O-])c1 [1-chloro-2,4-dinitrobenzene]
[1]
  GST activity toward CDNB: comparable to that of the human microsomal GST (MGST1, Figure S3D-F)

## EXP1 (Plasmodium falciparum 3D7)
[2]
  Km: 0.251 µM
  kcat: 7.7 s⁻¹

## C=CC1=C(C)C2=Cc3c(C=C)c(C)c4[n]3[Fe+][n]3c(c(C)c(CCC(=O)O)c3=CC3=NC(=C4)C(C)=C3CCC(=O)O)=CC1=N2 [hematin]
EXP1
  Ki: 170 nM
